In patent publication US20240261426A1, “CONJUGATES COMPRISING PHOSPHOANTIGENS AND THEIR USE IN THERAPY” (BYONDIS B.V., priority 2021, published 2024):

Legend:
[1] = tested on: Raji cells; assay: Cellular binding to Raji cells (flow cytometry); parameters: species or system human
Experimental: Raji cells were cultured as described in Example 23. […] After an incubation time of 30 minutes at 4° C., the cells were washed twice with ice-cold FACS buffer. […] After 30 minutes at 4° C., cells were washed twice and resuspended in 150 μL ice-cold FACS buffer. Fluorescence intensities were determined by flow cytometry using the FACSVerse or FACSymphony (BD Biosciences) and indicated as the median fluorescence intensity (MFI). Curves were fitted by nonlinear regression with a variable slope (four parameters) in GraphPad Prism version 9. EC50 values were calculated in GraphPad Prism as the concentration in μg/mL that gives a response halfway between bottom and top of the curve. Binding experiments were performed N=2 or N=3 times.

[2] = tested on: Raji cells; assay: Direct compound-related cell death (CellTiter-Glo, 6 days); type: cell-based, human; details: 6 days incubation, positive control
Experimental: Metabolic activity was assessed after 6 days, using the CellTiter-Glo™ (CTG) luminescent assay kit from Promega Corporation (Madison, WI) according to the manufacturer's instructions. Cell viability was expressed as the percentage survival relative to the average mean of untreated cells or vehicle-treated cells (only growth medium or 1% DMSO) multiplied with 100. The efficacy was calculated by subtracting the bottom of the dose response curve (DRC) from 100%.

[3] = tested on: Vδ2 γδ T-cells; assay: Functional assay: Vδ2 γδ T-cell activation (CD107a, IFNγ, TNFα) after co-culture of PBMCs with pretreated Raji cells; type: cell-based, human; details: for IFNγ production and degranulation of Vδ2 γδ T-cells compared to pretreatment with HMBPP: pre-treated Raji cells; for IFNγ production and degranulation (CD107a) of Vδ2 γδ T-cells, in words: pretreated Raji cells co-cultured with PBMCs
Experimental: (§1) To determine (unconjugated) phosphoantigen prodrug activity, Raji target cells were pre-incubated with XC1 and XD1, prior to co-culture with peripheral blood mononuclear cells (PBMCs) containing effector cells. Selective gammadelta T-cell activation was studied in vitro after co-culture of PBMCs with tumor cells (from the CD20-positive Burkitt's Lymphoma human tumor cell line Raji) pretreated with phosphoantigen HMBPP, phosphoantigen prodrugs XC1, XD1, or the conjugates listed in Table 1.
(§2) The CD20-positive Burkitt's Lymphoma human tumor cell line Raji (DSMZ, the German collection of Microorganisms and cell cultures GmbH (Leibniz Institute, Germany)) was used for in vitro experiments. Raji cells were cultured in complete growth medium (CGM): RPMI-1640 (Lonza, Walkersville, MD, USA) supplemented with 10% Heat-inactivated (HI) Fetal Bovine Serum (FBS) (Gibco-Life Technologies; Carlsbad, CA) and 80 U/mL Penicillin-Streptomycin solution (Lonza Group Ltd, Basel Switzerland). Raji cells were maintained at 37° C. in a humidified incubator containing 5% CO2 and sub-cultured twice a week.
For stimulation with conjugates according to the invention (ADCs), unconjugated phosphoantigen prodrugs and HMBPP, Raji cells were harvested, diluted to a concentration of 5×10^6 cells/mL and 50 μL (equivalent to 250.000 cells/well) of this cell suspension was seeded into a 96-well plate. A 2-times concentrated, 10-fold serial dilution of the prodrugs and ADC was prepared in CGM. Plated Raji cells were incubated overnight (O/N) in a humidified incubator with 5% CO2 at 37° C. with 50 μL/well of the serially-diluted compounds.
The following day, the 96 well plate with Raji cells and compounds (ADCs, unconjugated phosphoantigen prodrugs or HMBPP) was washed by adding 100 μL/well CGM, centrifugation at 300×g for 3 minutes at room temperature (RT), and removal of supernatant in order to remove excessive unbound compound.
As a source of immune cells, frozen peripheral blood mononuclear cells (PBMCs) of a healthy human donor were thawed, resuspended in CGM and placed O/N in a humidified incubator with 5% CO2 at 37° C. to let the cells recover.
The recovered PBMCs were harvested, counted and diluted to a concentration of 10×10^6 cells/mL in CGM, and 50 μL/well (equivalent to 0.5×10^6 cells/well) was added to the Raji cells. […] In all experiments, 1% Phytohemagglutinin (PHA-M, Gibco-ThermoFisher), known as an aspecific activator of immune cells, was also included in a well to serve as a positive control. Samples were incubated for 6 hours in a humidified incubator with 5% CO2 at 37° C. […]

[4] = tested on: NK cells, CD8+ T-cells, Vδ1 γδ T-cells; assay: Functional assay: activation of other immune cells after co-culture of PBMCs with pretreated Raji cells; type: cell-based, human; details: pretreated Raji cells co-cultured with PBMCs; PHA-M added to co-culture
Experimental: as §1
as §2, with “week. […]” for “week.”
The recovered PBMCs were harvested, counted and diluted to a concentration of 10×10^6 cells/mL in CGM, and 50 μL/well (equivalent to 0.5×10^6 cells/well) was added to the Raji cells. […]

[5] = tested on: Vδ2 γδ T-cells; assay: Functional assay with pretreated CD20 positive B-cell lines (CD107a read-out); type: cell-based, human; details: all tested B-cell lines (Raji, HG-3, MEC-1, SU-DHL-4, SU-DHL-8)
[6] = tested on: Vδ2 γδ T-cells; assay: Functional assay with pretreated HER2-positive cell lines; type: cell-based, human; details: pretreated HCT-116 cells (low HER2)
[7] = tested on: Vδ2 γδ T-cells; assay: Functional assay with pretreated MOLM-13 or Raji cells, different DAR (CD107a); type: cell-based, human
Experimental: The functional assay was performed as disclosed in Example 23, with the exception that Raji and MOLM-13 cells were pretreated for 16 or 40 hours with antibodies/ADCs/controls (Table 13). Furthermore, CD107a degranulation levels were determined only and not IFNγ expression levels. Thus, on the third experimental days, cells were directly analyzed on the BD FACSymphony A3 Cell analyzer (BD Biosciences, San Jose, CA, USA), before incubation with BD Perm/wash. […] EC50 values were calculated in GraphPad Prism as the concentration in μg/mL that gives a response half way between bottom and top of the curve. […] Raji cells were cultured as described in Example 23. The CD123-positive acute monocytic leukemia cell line MOLM-13 (DSMZ, ACC 554, the German collection of Microorganisms and cell cultures GmbH (Leibniz Institute, Germany)) was cultured in CGM and was maintained at 37° C. in a humidified incubator containing 5% CO2 and sub-cultured twice a week.

[8] = molecular target: T1, CD20 on Raji cells (CD20-positive Burkitt's Lymphoma human tumor cell line) (human, UniProt P11836 1-297); assay: flow cytometry on CD20-positive Raji cells, APC anti-human IgG F(ab')2 secondary, MFI curve fit; experiment 1 and 2
T1 construct: whole, on cells
T1 sequence (looked up): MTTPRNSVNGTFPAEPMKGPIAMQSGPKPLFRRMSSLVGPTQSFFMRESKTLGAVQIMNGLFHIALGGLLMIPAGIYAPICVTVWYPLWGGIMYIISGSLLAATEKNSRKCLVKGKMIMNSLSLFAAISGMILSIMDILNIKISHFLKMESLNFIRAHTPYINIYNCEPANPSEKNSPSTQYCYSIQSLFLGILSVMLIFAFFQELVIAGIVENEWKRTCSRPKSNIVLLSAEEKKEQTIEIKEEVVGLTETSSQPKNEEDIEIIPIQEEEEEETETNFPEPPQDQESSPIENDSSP

[9] = molecular target: T1, CD20 on Raji cells (CD20-positive …); assay: flow cytometry on CD20-positive Raji cells, APC anti-human IgG F(ab')2 secondary, MFI curve fit; experiment 3 and 4
[10] = molecular target: T1, CD20 on Raji cells (CD20-positive …); assay: flow cytometry on CD20-positive Raji cells, APC anti-human IgG F(ab')2 secondary, MFI curve fit; experiment 5, 6 and 7

rituximab: Anti-CD20 monoclonal antibody (MoAb) [reference compound]
Binding to Raji cells EC50 ([1]; Experiment 1 and 2): 0.6 µg/mL | Binding to Raji cells EC50 ([1]; Experiment 3 and 4): 1.221 µg/mL | Binding to Raji cells EC50 ([1]; Experiment 5, 6 and 7): 3.451 µg/mL

COC(=O)c1cc2c([nH]1)C(=O)C=C1N(C(=O)c3cc4cc(OC)c(OC)c(OC)c4[nH]3)C[C@H]3C[C@]123 [duocarmycin type toxin]
direct compound related cell death, in words [2]: very effective

C/C(=C\CCP(=O)(OCOC(=O)C(C)(C)C)OCOC(=O)C(C)(C)C)CO [XC1]
IFNγ production and degranulation of Vδ2 γδ T-cells compared to pretreatment with HMBPP [3]: more potently induced | IFNγ production and degranulation (CD107a) of Vδ2 γδ T-cells, in words [3]: dose-dependently induced IFNγ production and degranulation | activation of other immune cells (NK cells, CD8+ T-cells, Vδ1 γδ T-cells), in words [4]: without inducing direct activation of other immune cells

C/C(=C\COP(=O)(O)OP(=O)(O)O)CO [HMBPP, (E)-4-Hydroxy-3-methyl-but-2-enyl pyrophosphate]
activation (degranulation) of Vδ2 γδ T-cells, in words [5]: induced degranulation of Vδ2 γδ T-cells | activation of Vδ2 γδ T-cells, in words [6]: able to activate Vδ2 γδ T-cells | Vδ2 γδ T-cell activation, in words [7]: capable of activating Vδ2 γδ T-cells

C/C(=C\CCP(=O)(N[C@@H](C)C(=O)OCc1ccccc1)Oc1ccccc1)CO (stereo partly shown) [XD1]
IFNγ production and degranulation of Vδ2 γδ T-cells compared to pretreatment with HMBPP [3]: more potently induced | IFNγ production and degranulation (CD107a) of Vδ2 γδ T-cells, in words [3]: dose-dependently induced IFNγ production and degranulation | activation of other immune cells (NK cells, CD8+ T-cells, Vδ1 γδ T-cells), in words [4]: without inducing direct activation of other immune cells

B1: rituximab (anti-CD20 monoclonal antibody) (antibody, V domains shown)
VH: QVQLQQPGAELVKPGASVKMSCKASGYTFTSYNMHWVKQTPGRGLEWIGAIYPGNGDTSYNQKFKGKATLTADKSSSTAYMQLSSLTSEDSAVYYCARSTYYGGDWYFNVWGAGTTVTVSA
VL: QIVLSQSPAILSASPGEKVTMTCRASSSVSYIHWFQQKPGSSPKPWIYATSNLASGVPVRFSGSGSGTSYSLTISRVEAEDAATYYCQQWTSNPPTFGGGTKLEIK
EC50 [8]: 0.6 µg/mL | EC50 [9]: 1.22 µg/mL | EC50 [10]: 3.45 µg/mL
